Data on 5 compounds can be found in patent US5439892A, “Dextrin sulfates as anti HIV-1 agents and composition thereof” (ML Laboratories, priority 1990, dated 1995).

Data set [1] is described as follows: toxicity: cell viability by [3H]-thymidine uptake in PHA-stimulated human PBL. Format: cell-based. The note with it: human, pha-stimulated pbl, 3 days, mean of quadruplicate, read-out: Thymidine uptake (% of control with no drug). The procedure:
(§1) Normal human peripheral blood lymphocytes (PBL) were fractionated on Ficoll-Hypaque (Pharmacia Chemicals, Uppsala, Sweden) from venous blood collected in preservative-free heparin. They were mitogenetically stimulated with phytohaemaglutinin (PHA) (1 ug/ml) for 3 days and maintained in the medium RPMI 1640 supplemented by 20% foetal calf serum (FCS)+interleukin-2 (IL2) ([…]).
(§2) The relative toxicities of the materials tested in example 4 were evaluated by reference to cell viability in the presence of the drugs as measured by the relative uptake of [^3 H]- thymidine. Human PBL (10^6 cells/well) in 96 microtitre plates was stimulated with PHA in the presence of increasing concentration of drug for 3 days. Following a 5 hour probe with [^3 H]- thymidine (0.5 uCi/well), the cells were harvested and counted. The results shown represent the mean of quadruplicate experiments and are presented as the percentage incorporation of [^3 H]-thymidine in the presence of drug, compared to control experiments without drug.

The next data set deals with Human PBL. The data set is described as above. To be noted: around 200 ug/ml. Format: cell-based. The procedure: as §1, §2
Data set [2] relates to HIV-1 (RF). Nature of the data set: microbe, parasite or virus in culture. Format: cell-based. The note with it: for decrease in infectivity titre: RF. The procedure: The human T-leukamic cell line C8166 was grown in RPMI 1640 with 10% FCS.
Various strains of HIV-1 (RF. IIIB, CBL-4, Z84 and Z129) were produced in chronically infected H9 cells. A five-fold excess of uninfected H9 cells was added to the culture five days prior to harvesting the supernatant which is clarified by centrifugation and stored in liquid nitrogen.
Induction of cytopathic effects on CD4^+ C8166 by HIV was assayed by multi-nucleated giant cell formation (syncytia).
(§3) HIV-1 (RF) was titrated in 10-fold dilutions onto C8166 cells in the presence of varying concentrations of drug. […] The figures in the table represent the logarithm to the base 10 of the figure actually determined. For instance, a figure of -6 in the table represents a determined result of 10^-6.

The subject of another data set is HIV-1 IIIB. Nature of the data set: decrease in infectivity titre in C8166 cells, HIV-1 IIIB. In kind it is cell-based. To be noted: for decrease in infectivity titre: IIIB, C8166 cells.
Data set [3] relates to HIV-1 (RF). In kind it is cell-based.
Source text: as §3

In another data set the test system is HIV-1 CBL-4. Nature of the data set: decrease in infectivity titre in C8166 cells, HIV-1 CBL-4. Format: cell-based. To be noted: for decrease in infectivity titre: CBL-4, C8166 cells.
Another data set deals with RUT. The data set is described as follows: minimum concentration inhibiting syncytia formation in M8166 JH11 cells, RUT. Format: cell-based, HIV-1. To be noted: 10^2 TCID. The procedure: (§4) 50 ul samples of dextran sulphate and of the 2-, 3- and 6-sulphate derivatives of dextrin of Examples 3, 1 and 2 respectively were pre-incubated at 37° C. onto duplicate cultures of 4×10^5M8166 JH11 cells per ml (50 ul) at final concentrations of […] for one hour.

Data set [4] concerns HIV-1. The data set is described as follows: activity against HIV-1 virus (general statement). The note with it: comparison among dextrin sulphates.
In another data set the test system is RF. The data set is described as follows: minimum concentration inhibiting syncytia formation in M8166 JH11 cells, RF. To be noted: for inhibitory concentration (minimum concentration at which syncytia formation was <10% that of controls): RF, 10^3 TCID, M8166 JH11 cells. Format: cell-based, HIV-1. The procedure:
as §4

For the next data set, the system named is Bovine Thrombin. The data set is described as follows: anti-coagulant activity: clot formation time of pooled normal plasma after bovine thrombin. In kind it is biochemical. To be noted: comparison among dextrin sulphates. On the procedure:
The materials to be tested were each dissolved in veronal buffer to a concentration of 1 mg/ml=1000 ug/ml and a further dilution of 100 ug/ml was made by a 1:10 dilution in veronal buffer. Pooled normal plasma (1 ml) was then placed into each of nine plastic tubes. The solutions containing the materials to be tested were then added to the plasma to achieve a range of final concentrations from 1-300 ug/ml, in each case the volume being made up to 1.5 ml with veronal buffer. The resultant mixtures were incubated at 37° C. for 30 minutes, following which two 0.2 ml aliquots were extracted from each sample into glass tubes (Samples A and B), and 0.1 ml 7 U Bovine Thrombin was added and clot formation timed.

The subject of a further data set is CBL20. The data set is described as follows: minimum concentration inhibiting syncytia formation in M8166 JH11 cells, CBL20. In kind it is cell-based, HIV-1. The note with it: 10^3 TCID. The procedure: as §4
A further data set has as its system IIIb. Nature of the data set: minimum concentration inhibiting syncytia formation in M8166 JH11 cells, IIIb. Format: cell-based, HIV-1. To be noted: 10^3 TCID. The procedure:
as §4

For data set [5], the system named is HIV-1. The data set is described as follows: inhibition of syncytia formation, overall over IIIb, RF, RUT, CBL20. In kind it is cell-based. The note with it: compared with dextran sulphate (MW 8,000) and dextrin 3-sulphate. On the procedure: as §4
The mark [6] stands for this setting: 0.1 ug/ml, HIV-1 (RF), C8166 cells.
Where [7] appears, read: 1.0 ug/ml, HIV-1 (RF), C8166 cells.
The mark [8] stands for this setting: 10 ug/ml, HIV-1 (RF), C8166 cells.
Where [9] appears, read: 100 ug/ml, HIV-1 (RF), C8166 cells.
Setting [10] is: Human immunodeficiency virus 1, C8166, read-out: decrease in infectivity titre.
Setting [11] is: Human immunodeficiency virus 1, IIIB, C8166, read-out: decrease in infectivity titre.

Where two headings read alike, the source gives them in different places.

On to `Cc1cn([C@H]2C[C@H](N=[N+]=[N-])[C@@H](CO)O2)c(=O)[nH]c1=O` [AZT, zidovidine], for which the viability at 72 h in data set [1] (5 ug/ml) was 20%; in data set [1] (10 ug/ml), 15%; in data set [1] (25 ug/ml), 5%; in [1] (50 ug/ml), 2%; in data set [1] (71 ug/ml) it was 1%; in data set [1] (100 ug/ml) it was 1%. Also, in data set [1] (200 ug/ml), the viability at 72 h stood at 0%. Further, the toxicity in words entry in the data set on Human PBL was “very highly toxic”. Moreover, the “Final dilution of the virus at which syncytia are produced (logarithm to the base 10)” value (shortened to “Final dilution … (logarithm to the base 10)”) in the data set with HIV-1 (RF) [2] (setting [6]) is on record as -4; in the data set on HIV-1 (RF) [2] (setting [7]), -3.5; with HIV-1 (RF) [2] (setting [8]), -3; with HIV-1 (RF) [2] (setting [9]), -3. In addition, the log reduction at 10 µg/mL with HIV-1 (RF) [2] (setting [10]) was determined as 3; with HIV-1 (RF) [2] (Human immunodeficiency virus 1, C8166, read-out: reduction of the infectious titre), 3; with HIV-1 IIIB (setting [11]), 4; with HIV-1 CBL-4 (setting [10]) it was 4. The results for the log reduction at 50 µg/mL in the data set on HIV-1 (RF) [2] (setting [10]), with HIV-1 IIIB (setting [11]) and in the data set with HIV-1 CBL-4 (setting [10]) were 3, 4 and 4, respectively. Moreover, the log reduction at 1 µg/mL in the data set with HIV-1 (RF) [2] (Human immunodeficiency virus 1, C8166, read-out: inhibition (reduction of the infectious titre)) is 2.5. The “Inhibition of HIV-1 (RF), live cell (C8166) reduction of MTT, estimated visually” value in the data set on HIV-1 (RF) [3] (0.1 ug/ml), in the data set on HIV-1 (RF) [3] (1.0 ug/ml) and with HIV-1 (RF) [3] (10 ug/ml) was “-” throughout.
For the compound Dextran, the “Final dilution … (logarithm to the base 10)” value with HIV-1 (RF) [2] (setting [6]), in the data set on HIV-1 (RF) [2] (setting [7]) and in the data set with HIV-1 (RF) [2] (setting [8]) was -6 each time. For the same compound, in the data set on HIV-1 (RF) [2] (HIV-1 (RF), C8166 cells), the “effect against HIV replication” value is on record as “ineffective against HIV replication”. Moreover, the “Inhibition of HIV-1 (RF), live cell (C8166) reduction of MTT, estimated visually” value with HIV-1 (RF) [3] (10 ug/ml) is on record as “-”.
As to dextrin 2-sulphate, the “inhibitory concentration (minimum concentration at which syncytia formation was <10% that of controls)” value with RUT is 5 µg/µL; in the data set with RF it was 5 µg/µL; in the data set with CBL20 it was 50 µg/µL; in the data set with IIIb, 5 µg/µL. Also, in the data set on HIV-1 (RF) [2] (1 ug/ml, HIV-1 (RF), C8166 cells), the “inhibition (reduction of the infectious titre)” value is listed as 2 logs. Moreover, the “Final dilution … (logarithm to the base 10)” value with HIV-1 (RF) [2] (setting [7]) is on record as -4; in the data set with HIV-1 (RF) [2] (setting [8]) it was -2; with HIV-1 (RF) [2] (setting [9]) it was -2. Moreover, the “reduction of the infectious titre” value in the data set with HIV-1 (RF) [2] (setting [8]) turned out to be 3 logs. Moreover, the “decrease in infectivity titre” value in the data set with HIV-1 (RF) [2] (10 ug/ml, C8166 cells) is on record as 5 log units; in the data set on HIV-1 (RF) [2] (50 ug/ml, C8166 cells), 6 log units; in the data set with HIV-1 IIIB (10 ug/ml), 3 log units; in the data set with HIV-1 IIIB (50 ug/ml) it was 5 log units; in the data set on HIV-1 CBL-4 (10 ug/ml), 0 log units; with HIV-1 CBL-4 (50 ug/ml) it was 4 log units. Besides, the “inhibition of syncytial induction on C8166 cells” value in the data set on HIV-1 (RF) [2] (compared with AZT and dextran sulphate) is on record as “inhibits syncytial induction on C8166 cells with greater effect than either AZT or dextran sulphate”. Also, the “anti-HIV activity in words” value in the data set on HIV-1 [4] is listed as “about the same activity against the HIV-1 virus as the dextrin 6sulphate”. In addition, the “anti-coagulant activity in words” value with Bovine Thrombin is reported as “least anti-coagulant”. In addition, the “Inhibition of HIV-1 (RF), live cell (C8166) reduction of MTT, estimated visually” value in the data set on HIV-1 (RF) [3] (1.0 ug/ml) and in the data set with HIV-1 (RF) [3] (10 ug/ml) was “-” in each case. Further, the overall effectiveness entry in the data set with HIV-1 [5] is on record as “overall greater effectiveness”.
In the case of dextrin 3-sulphate, the “inhibitory concentration (minimum concentration at which syncytia formation was <10% that of controls)” value in the data set with RUT is 50 µg/µL; in the data set on RF it was 5 µg/µL; in the data set on CBL20, over 50 µg/µL; in the data set on IIIb it was 50 µg/µL. Besides, in the data set on HIV-1 [4], the “anti-HIV activity in words” value was “relatively poor anti-HIV activity, by comparison with dextrin 2- and 6-sulphates”. Also, the “effectiveness against RF” value in the data set with RF (compared with dextran sulphate (MW 8,000)) is listed as “more effective than dextran sulphate against RF”. The “anti-coagulant activity in words” value with Bovine Thrombin is listed as “least anti-coagulant”.
In the case of dextrin 6-sulphate, the “inhibitory concentration (minimum concentration at which syncytia formation was <10% that of controls)” value in the data set with RUT was 50 µg/µL; with RF, 5 µg/µL; in the data set with CBL20 it was over 50 µg/µL; in the data set with IIIb, 5 µg/µL. Further, the “anti-coagulant activity in words” value in the data set on Bovine Thrombin is “greater anti-coagulant activity”. Further, in the data set on HIV-1 [5], the overall effectiveness result is given as “overall greater effectiveness”.
